Results published in the NIST ThermoML archive (doi:10.1021/acs.jced.7b00107).
± gives the expanded uncertainty stated by the source.

Experiment: molar heat capacity at constant pressure
Details: 101.33 kPa, Crystal 1

Cl.NC12CC3CC(CC(C3)C1)C2 [1-aminoadamantane hydrochloride]
molar heat capacity at constant pressure [J/K/mol]
Details	Small (less than 1 g) adiabatic calorimetry	Small sample (50 mg) DSC
196.3 K	140.9 ± 0.8	–
197.31 K	141.5 ± 0.8	–
197.81 K	141.9 ± 0.8	–
199.31 K	142.8 ± 0.8	–
199.33 K	142.9 ± 0.8	–
200 K	143.3 ± 0.8	–
200.81 K	143.9 ± 0.8	–
201.34 K	144.3 ± 0.8	–
202.3 K	144.9 ± 0.8	–
203.36 K	145.7 ± 0.8	–
203.8 K	146.1 ± 0.8	–
205.3 K	147 ± 0.8	–
205.38 K	147.1 ± 0.8	–
206.8 K	148 ± 0.8	–
207.4 K	148.4 ± 0.8	–
208.29 K	149 ± 0.8	–
209.42 K	149.8 ± 0.8	–
209.79 K	150 ± 0.8	–
210 K	150.2 ± 0.8	–
211.28 K	151 ± 0.8	–
211.44 K	151.2 ± 0.8	–
212.77 K	152.1 ± 0.8	–
213.46 K	152.6 ± 0.8	–
214.26 K	153.1 ± 0.8	–
215.49 K	154.1 ± 0.8	–
215.75 K	154.2 ± 0.8	–
217.23 K	155.3 ± 0.9	–
217.51 K	155.5 ± 0.9	–
218.71 K	156.2 ± 0.9	–
219.54 K	156.9 ± 0.9	–
220 K	157.3 ± 0.8	–
220.19 K	157.2 ± 0.9	–
221.56 K	158.4 ± 0.9	–
221.67 K	158.4 ± 0.9	–
223.43 K	159.7 ± 0.9	–
223.59 K	159.8 ± 0.9	–
225.29 K	161.1 ± 0.9	–
225.62 K	161.3 ± 0.9	–
227.06 K	162.3 ± 0.9	–
227.64 K	162.8 ± 0.9	–
228.83 K	163.7 ± 0.9	–
229.67 K	164.3 ± 0.9	–
230 K	164.5 ± 0.9	–
230.6 K	165.1 ± 0.9	–
231.7 K	165.8 ± 0.9	–
232.37 K	166.3 ± 0.9	–
233.72 K	167.3 ± 0.9	–
234.13 K	167.6 ± 0.9	–
235.75 K	169 ± 0.9	–
235.89 K	168.9 ± 0.9	–
237.64 K	170.4 ± 0.9	–
237.78 K	170.3 ± 0.9	–
239.4 K	171.9 ± 0.9	–
239.81 K	172.1 ± 0.9	–
240 K	171.8 ± 0.9	–
241.15 K	173.6 ± 0.9	–
241.84 K	174.1 ± 0.9	–
242.89 K	174.2 ± 0.9	–
243.87 K	174.6 ± 0.9	–
244.64 K	175.3 ± 0.9	–
245.91 K	176.1 ± 1	–
246.38 K	176.6 ± 1	–
247.94 K	177.7 ± 1	–
248.13 K	177.9 ± 1	–
249.87 K	179.2 ± 1	–
249.97 K	179.2 ± 1	–
250 K	179.3 ± 1	–
251.6 K	180.5 ± 1	–
252 K	180.7 ± 1	–
253.34 K	181.7 ± 1	–
254.03 K	182.2 ± 1	–
255.07 K	183.1 ± 1	–
256.06 K	183.7 ± 1	–
256.8 K	184.4 ± 1	–
258.09 K	185.3 ± 1	–
258.52 K	185.6 ± 1	–
260 K	186.8 ± 1	–
260.12 K	186.8 ± 1	–
260.24 K	186.9 ± 1	–
262.15 K	188.4 ± 1	–
264.19 K	189.9 ± 1	–
266.22 K	191.4 ± 1	–
268.25 K	193.1 ± 1	–
270 K	194.3 ± 1.1	–
270.28 K	194.5 ± 1	–
272.31 K	196.1 ± 1.1	–
274.35 K	197.7 ± 1.1	–
276.38 K	199.3 ± 1.1	–
278.41 K	200.9 ± 1.1	–
280 K	202.1 ± 1.1	–
280.44 K	202.5 ± 1.1	–
282.47 K	204 ± 1.1	–
284.51 K	205.6 ± 1.1	–
286.53 K	207.1 ± 1.1	–
288.56 K	208.7 ± 1.1	–
290 K	209.9 ± 1.1	–
290.6 K	210.3 ± 1.1	–
292.63 K	211.9 ± 1.1	–
294.66 K	213.5 ± 1.1	–
296.69 K	215 ± 1.1	–
298.15 K	216.2 ± 1.2	–
298.72 K	216.6 ± 1.2	–
300 K	217.6 ± 1.2	–
300.75 K	218.1 ± 1.2	–
302.78 K	219.8 ± 1.2	–
304.81 K	221.3 ± 1.2	–
306.84 K	222.9 ± 1.2	–
308.88 K	224.5 ± 1.2	–
310 K	225.3 ± 1.2	222.6 ± 9.4
310.91 K	226 ± 1.2	–
311.7 K	–	223.7 ± 9.5
312.94 K	227.6 ± 1.2	–
313.3 K	–	224.7 ± 9.5
314.98 K	229.1 ± 1.2	–
315 K	–	226.1 ± 9.6
316.6 K	–	227.2 ± 9.6
317.01 K	230.8 ± 1.2	–
318.2 K	–	228.5 ± 9.7
319.04 K	232.3 ± 1.2	–
319.9 K	–	229.5 ± 9.7
320 K	233 ± 1.2	–
321.08 K	233.9 ± 1.2	–
321.5 K	–	230.9 ± 9.8
323.1 K	–	231.9 ± 9.8
323.11 K	235.4 ± 1.2	–
324.8 K	–	233.5 ± 9.9
325.15 K	237 ± 1.2	–
326.4 K	–	234.8 ± 10
327.19 K	238.6 ± 1.3	–
328 K	–	236 ± 10
329.23 K	240.1 ± 1.3	–
329.6 K	–	237.3 ± 10
330 K	240.7 ± 1.3	–
331.2 K	–	238.4 ± 10
331.26 K	241.7 ± 1.3	–
332.8 K	–	239.6 ± 10
333.3 K	243.3 ± 1.3	–
334.4 K	–	241.2 ± 10
335.34 K	244.9 ± 1.3	–
336 K	–	242.3 ± 10
337.38 K	246.5 ± 1.3	–
337.6 K	–	243.3 ± 10
339.3 K	–	244.7 ± 10
339.42 K	248.1 ± 1.3	–
340 K	248.6 ± 1.3	–
340.9 K	–	246.2 ± 10
341.46 K	249.6 ± 1.3	–
342.5 K	–	247.4 ± 10
343.5 K	251.3 ± 1.3	–
344.1 K	–	248.6 ± 11
345.54 K	252.9 ± 1.3	–
345.7 K	–	249.8 ± 11
347.2 K	–	251.1 ± 11
347.58 K	254.6 ± 1.3	–
348.8 K	–	252.4 ± 11
349.62 K	256.2 ± 1.3	–
350 K	256.5 ± 1.3	–
350.4 K	–	253.7 ± 11
351.66 K	257.8 ± 1.4	–
352 K	–	254.9 ± 11
353.6 K	–	256.1 ± 11
353.7 K	259.4 ± 1.4	–
355.2 K	–	257.6 ± 11
355.74 K	261.1 ± 1.4	–
356.8 K	–	259 ± 11
357.78 K	262.8 ± 1.4	–
358.4 K	–	260.3 ± 11
359.82 K	264.4 ± 1.4	–
360 K	264.5 ± 1.4	261.8 ± 11
361.6 K	–	263.1 ± 11
361.86 K	266 ± 1.4	–
363.2 K	–	264.7 ± 11
363.9 K	267.5 ± 1.4	–
364.8 K	–	265.8 ± 11
365.94 K	269.3 ± 1.4	–
366.3 K	–	267.1 ± 11
367.9 K	–	268.2 ± 11
367.98 K	270.9 ± 1.4	–
369.5 K	–	269.4 ± 11
370 K	272.5 ± 1.4	–
371.1 K	–	270.6 ± 12
372.7 K	–	271.9 ± 12
374.3 K	–	273.2 ± 12
375.9 K	–	274.4 ± 12
377.4 K	–	275.5 ± 12
379 K	–	276.5 ± 12
380 K	–	280 ± 12
380.6 K	–	277.8 ± 12
382.2 K	–	279 ± 12
383.8 K	–	280.3 ± 12
385.4 K	–	281.2 ± 12
386.9 K	–	282.7 ± 12
388.5 K	–	284.1 ± 12
390 K	–	288 ± 13
390.1 K	–	285 ± 12
391.7 K	–	286.5 ± 12
393.3 K	–	287.4 ± 12
394.9 K	–	288.7 ± 12
396.4 K	–	289.9 ± 12
398 K	–	291.3 ± 12
399.6 K	–	292.6 ± 12
400 K	–	296 ± 13
401.2 K	–	293.6 ± 12
402.8 K	–	294.7 ± 12
404.4 K	–	296.2 ± 13
405.9 K	–	297.3 ± 13
407.5 K	–	298.6 ± 13
409.1 K	–	299.8 ± 13
410 K	–	304 ± 13
410.7 K	–	301 ± 13
412.3 K	–	302.3 ± 13
413.8 K	–	303.9 ± 13
415.4 K	–	305.3 ± 13
417 K	–	306.5 ± 13
418.6 K	–	307.7 ± 13
420 K	–	312 ± 13
420.2 K	–	308.7 ± 13
421.7 K	–	309.9 ± 13
423.3 K	–	311.5 ± 13
424.9 K	–	312.6 ± 13
426.5 K	–	313.6 ± 13
428.1 K	–	314.7 ± 13
429.7 K	–	315.8 ± 13
430 K	–	319 ± 14
431.2 K	–	317 ± 14
432.8 K	–	318.4 ± 14
434.4 K	–	319.9 ± 14
436 K	–	321 ± 14
437.6 K	–	322.3 ± 14
439.1 K	–	323.5 ± 14
440 K	–	327 ± 14
440.7 K	–	324.8 ± 14
442.3 K	–	326 ± 14
443.9 K	–	326.9 ± 14
445.5 K	–	328 ± 14
447 K	–	329.5 ± 14
448.6 K	–	330.4 ± 14
450 K	–	334 ± 14
450.2 K	–	331.6 ± 14
451.8 K	–	332.9 ± 14
453.4 K	–	334.4 ± 14
454.9 K	–	335.7 ± 14
456.5 K	–	336.7 ± 14
458.1 K	–	337.3 ± 14
459.7 K	–	338.7 ± 14
460 K	–	342 ± 15
461.3 K	–	339.3 ± 14
462.8 K	–	340.6 ± 14
464.4 K	–	341.7 ± 14
466 K	–	343 ± 15
467.6 K	–	344.1 ± 15
469.2 K	–	345 ± 15
470 K	–	349 ± 15
470.7 K	–	346.4 ± 15
